Data published in patent US20070098761A1, “Processed fat composition for preventing/ameliorating lifestyle-related diseases” (priority 2003, published 2007).
Where two headings read alike, the source gives them in different places. Blank lines part the entries; values can stand above or below the compound they belong to.

Assay: Shelf stability test (accelerating test at 80° C.)
Type: physicochemical
Method: A shelf stability test of glabrene, glabridin, glabrol and 4′-O-methylglabridin in the above MCT solution was carried out as an accelerating test at 80° C. The MCT solution was kept at 80° C. in a water bath, and the contents of glabrene, glabridin, glabrol and 4′-O-methylglabridin were determined after storage for 1, 3 and 5 hours respectively. The shelf stability was expressed in terms of the ratio of the content after storage to the content before storage, assuming that the content of each compound before storage was 100%.
A shelf stability test of the hydrophobic licorice extract in Comparative Example 1 was carried out in an analogous manner.
A shelf stability test of the ethanol solution in Comparative Example 2 was carried out in an analogous manner.

Shelf stability (ratio of content after storage to content before storage) (0 h): 100%
Compound: CC1(C)C=Cc2c(O)ccc(C3=Cc4ccc(O)cc4OC3)c2O1 [Compound 1, glabrene]

Shelf stability (ratio of content after storage to content before storage) (Ethanol solution (Comparative Example 2), 80° C., after 1 hour): 96%
Shelf stability (ratio of content after storage to content before storage) (Ethanol solution (Comparative Example 2), 80° C., after 3 hour): 94%
Shelf stability (ratio of content after storage to content before storage) (Ethanol solution (Comparative Example 2), 80° C., after 5 hour): 93%
Shelf stability (ratio of content after storage to content before storage) (Ethanol solution (Comparative Example 2), 80° C., at the time of start (set to 100%)): 100%
Shelf stability (ratio of content after storage to content before storage) (Hydrophobic licorice extract (Comparative Example 1), 80° C., after 1 hour): 91%
Shelf stability (ratio of content after storage to content before storage) (Hydrophobic licorice extract (Comparative Example 1), 80° C., after 3 hours): 88%
Shelf stability (ratio of content after storage to content before storage) (Hydrophobic licorice extract (Comparative Example 1), 80° C., after 5 hours): 86%
Shelf stability (ratio of content after storage to content before storage) (Hydrophobic licorice extract (Comparative Example 1), 80° C., at the time of start (set to 100%)): 100%
Shelf stability (ratio of content after storage to content before storage) (MCT solution (Example 1), 80° C., after 1 hour): 100%
Shelf stability (ratio of content after storage to content before storage) (MCT solution (Example 1), 80° C., after 3 hours): 101%
Shelf stability (ratio of content after storage to content before storage) (MCT solution (Example 1), 80° C., after 5 hours): 97%
Shelf stability (ratio of content after storage to content before storage) (MCT solution (Example 1), 80° C., at the time of start (set to 100%)): 100%
Stability during storage (in words) (in the ethanol solution, 80° C.): unstable
Stability during storage (in words) (in the hydrophobic licorice extract, 80° C.): unstable
Compound: CC1(C)C=Cc2c(ccc3c2OC[C@@H](c2ccc(O)cc2O)C3)O1 [Compound 2, glabridin]

Stability during storage (in words): stable
Shelf stability (ratio of content after storage to content before storage) (0 h): 100%
Compound: CC(C)=CCc1cc([C@@H]2CC(=O)c3ccc(O)c(CC=C(C)C)c3O2)ccc1O [Compound 3, glabrol]

Shelf stability (ratio of content after storage to content before storage): 100%
Stability during storage (in words): stable
Compound: COc1ccc([C@@H]2COc3c(ccc4c3C=CC(C)(C)O4)C2)c(O)c1 [Compound 4, 4′-O-methylglabridin]
